According to publication PMC9697031, “Identification of Novel Diarylpyrimidines as Potent HIV-1 Non-Nucleoside Reverse Transcriptase Inhibitors by Exploring the Primer Grip Region” (Pharmaceuticals, 2022):
Like-named read-outs stand apart in the source and are kept apart here.

Columns and labels:
[1] = system: HIV-1 RES056 (K103N/Y181C) mutant strain; assay: Anti-HIV-1 double mutant RES056 in MT-4 cells, MTT method; type: cell-based; conditions: Human immunodeficiency virus 1, MT4, read-out: EC50 RES056
Protocol: (§2) Evaluation of the anti-HIV activity and cytotoxicity of the target compounds was performed by utilizing the MTT method in MT-4 cells described previously [37]. Stock solutions (10 × final concentration) of test compounds were added in 25 μL volumes to two series of triplicate wells to allow simultaneous evaluation of their effects on mock- and HIV-infected cells at the beginning of each experiment. Serial five-fold dilutions of test compounds were prepared directly in flat-bottomed 96-well microtiter trays by adding 100 μL medium to the 25 μL stock solution and transferring 25 μL of this solution to another well that contained 100 μL medium using a Biomek 3000 robot (Beckman Instruments, Fullerton, CA). Each sample includes untreated control HIV- and mock-infected cell samples. WT HIV-1 strain (IIIB), HIV-1 drug-resistant strains including L100I, K103N, Y181C, Y188L, E138K, K103N/Y181C, F227L/V106A or HIV-2 strain (ROD) stock (50 μL) at 100–300 CCID50 (50% cell culture infectious dose) or culture medium was added to either the infected or mock-infected wells of the microtiter tray. Mock-infected cells were used to evaluate the effect of test compounds on uninfected cells to evaluate their cytotoxicity. Exponentially growing MT-4 cells were centrifuged for 5 min at 1000 rpm, and the supernatant was discarded. […] After infection five days, the viability of mock- and HIV-infected cells was examined spectrophotometrically by the MTT assay.

[2] = system: WT HIV-1 strain (IIIB); assay: Anti-HIV-1 (IIIB, wild-type) activity in MT-4 cells, MTT method; type: cell-based; conditions: for SI (IIIB): selectivity index, CC50/EC50 (IIIB)
Protocol: (§1) Stock solutions (10 × final concentration) of test compounds were added in 25 μL volumes to two series of triplicate wells to allow simultaneous evaluation of their effects on mock- and HIV-infected cells at the beginning of each experiment.

[3] = system: HIV-1 Y188L mutant strain; assay: Anti-HIV-1 mutant strain Y188L in MT-4 cells, MTT method; type: cell-based; conditions: Human immunodeficiency virus 1, MT4, read-out: EC50 Y188L
Protocol: as §2

[4] = system: HIV-1 E138K mutant strain; assay: Anti-HIV-1 mutant strain E138K in MT-4 cells, MTT method; type: cell-based; conditions: Human immunodeficiency virus 1, MT4, read-out: EC50 E138K
Protocol: as §2

[5] = in vitro; conditions: human
Protocol: as §1

[6] = system: HIV-1 F227L + V106A mutant strain; assay: Anti-HIV-1 double mutant F227L + V106A in MT-4 cells, MTT method; type: cell-based; conditions: Human immunodeficiency virus 1, MT4, read-out: EC50 F227L + V106A
Protocol: as §2

[7] = system: HIV-2 strain (ROD); assay: Anti-HIV-2 (ROD) activity in MT-4 cells, MTT method; type: cell-based; conditions: Human immunodeficiency virus 2, MT4, read-out: EC50 ROD
Protocol: as §1

[8] = system: HIV-1 K103N mutant strain; assay: microbe, parasite or virus in culture; type: cell-based; conditions: for EC50: Human immunodeficiency virus 1, MT4, read-out: EC50 K103N; for Resistance Folds K103N: RF, EC50 (K103N)/EC50 (WT)
Protocol: as §1

[9] = target: T1, HIV-1 WT RT (Human immunodeficiency virus type 1 group M subtype B, UniProt P04585); assay: HIV-1 RT inhibition assay (Roche kit, ELISA); type: biochemical
T1 construct: The RT is a heterodimer consisting of two subunits, p66 (560 residues) and p51 (440 residues); purchased Roche
Protocol: An HIV-1 reverse transcriptase (RT) assay kit produced by Roche was used for the RT inhibition assay. All the reagents for performing the RT reaction came from the kit, and the ELSIA procedures for RT inhibition assay were conducted following the description in the kit protocol [38]. […] Then used, a washing buffer was used to remove the unbound dNTPs, and an anti-DIG-POD working solution was added. […] The unbound anti-DIG-PODs were removed, and the peroxidesubstrate (ABST) solution was added to the MTPs. A colored reaction proceeds during the cleavage of the substrate catalyzed by POD. […] The percentage inhibitory activity of RT inhibitors was calculated by the formula given below: % Inhibition = [O.D. value with RT but without inhibitors − O.D. value with RT and inhibitors]/[O.D. value with RT and inhibitors − O.D. value without RT and inhibitors].

[10] = system: HIV-1 L100I mutant strain; assay: Anti-HIV-1 mutant strain L100I in MT-4 cells, MTT method; type: cell-based; conditions: Human immunodeficiency virus 1, MT4, read-out: EC50 L100I
Protocol: as §2

[11] = system: HIV-1 Y181C mutant strain; assay: Anti-HIV-1 mutant strain Y181C in MT-4 cells, MTT method; type: cell-based; conditions: Human immunodeficiency virus 1, MT4, read-out: EC50 Y181C
Protocol: as §2

[12] = system: WT HIV-1 strain (IIIB); set-up: method as in PMID 35061384; conditions: MT-4 cells, WT HIV-1 IIIB; used for comparison ref 5; cited from earlier work
[13] = target: T1, HIV-1 WT RT; set-up: method as in PMID 35061384; conditions: incorporation of biotin-dUTP; used for comparison ref 5; cited from earlier work
[14] = Human immunodeficiency virus 1, IIIB, MT4, read-out: EC50 IIIB, MT-4 cells, WT HIV-1 IIIB, MTT

Row | Structure (SMILES) | EC50 [1] | EC50 [2, 14] | SI (IIIB) [2] | EC50 [3] | EC50 [4] | CC50 at 5 days [5] | EC50 [6] | EC50 [7] | EC50 [8] | Resistance Folds K103N [8] | IC50 [9] | EC50 [10] | EC50 [11] | melting point | EC50 [12] | EC50 ([2]; read-out: EC50 IIIB, MT-4 cells, WT HIV-1 IIIB, MTT) | IC50 [13]
1 | Cc1cc(COc2ccc(NC(=O)OC(C)(C)C)cc2)cc(C)c1Oc1ccnc(Nc2ccc(C#N)cc2)n1 [TF16, (4-((4-((2-((4-cyanophenyl)amino)pyrimidin-4-yl)oxy)-3,5-dimethylbenzyl)oxy)phenyl)carbamic acid tert-butyl ester] | > 6200 nM | 45.3 ± 14.1 nM | 136.7 | > 6200 nM | 246 ± 30.4 nM | 6200 ± 220 nM | ≥ 1620 nM | > 6200 nM | 132 ± 28.4 nM | 2.93 | 160 ± 1 nM | 715 ± 184 nM | 1270 ± 154 nM | 184 to 187 °C | – | – | –
2 | Cc1cc(COc2ccc(F)nc2)cc(C)c1Oc1ccnc(Nc2ccc(C#N)cc2)n1 [TF14, 4-((4-(4-(((6-fluoropyridin-3-yl)oxy)methyl)-2,6-dimethylphenoxy)pyrimidin-2-yl)amino)benzonitrile] | 1190 ± 182 nM | 23.6 ± 3.8 nM | 1034.6 | 774 ± 39.2 nM | 67.4 ± 8.1 nM | 24400 nM | 999 ± 126 nM | > 24400 nM | 36.7 ± 3.7 nM | 1.54 | 41 ± 3 nM | 185 ± 11.6 nM | 286 ± 52.1 nM | 185 to 188 °C | – | – | –
3 | Cc1cc(COc2cccnc2C#N)cc(C)c1Oc1ccnc(Nc2ccc(C#N)cc2)n1 [TF12, 3-((4-((2-((4-cyanophenyl)amino)pyrimidin-4-yl)oxy)-3,5-dimethylbenzyl)oxy) picolinonitrile] | > 2460 nM | 7.8 ± 0.8 nM | 316.9 | ≥ 1560 nM | 46.2 ± 7.1 nM | 2460 ± 198 nM | 742 ± 145 nM | > 2460 nM | 34.7 ± 8.8 nM | 4.49 | 38 ± 4 nM | 246 ± 54.6 nM | 384 ± 75.5 nM | 245 to 248 °C | – | – | –
4 | Cc1cc(COc2ccccc2CO)cc(C)c1Oc1ccnc(Nc2ccc(C#N)cc2)n1 [TF10, 4-((4-(4-((2-(hydroxymethyl)phenoxy)methyl)-2,6-dimethylphenoxy)pyrimidin-2-yl)amino)benzonitrile] | > 4800 nM | 32.2 ± 3.3 nM | 149.1 | > 4800 nM | 179 ± 26.9 nM | 4800 ± 342 nM | 1490 ± 33.9 nM | > 4800 nM | 158 ± 18.6 nM | 4.94 | 55 nM | 635 ± 28.2 nM | 766 ± 22.5 nM | 179 to 182 °C | – | – | –
5 | COc1cccc(OCc2cc(C)c(Oc3ccnc(Nc4ccc(C#N)cc4)n3)c(C)c2)c1 [TF6, 4-((4-(4-((3-methoxyphenoxy)methyl)-2,6-dimethylphenoxy)pyrimidin-2-yl)amino)benzonitrile] | > 6900 nM | 35.3 ± 4.1 nM | 195.6 | 1390 ± 83.6 nM | 149.7 ± 0.7 nM | 6900 ± 249 nM | 1100 ± 281 nM | > 6900 nM | 91.2 ± 14.4 nM | 2.60 | 52 ± 4 nM | 156 ± 16.8 nM | 387 ± 87.4 nM | 149 to 152 °C | – | – | –
6 | Cc1cc(/C=C/C#N)cc(C)c1Nc1ccnc(Nc2ccc(C#N)cc2)n1 [RPV, rilpivirine] | – | – | – | – | – | – | – | – | – | – | – | – | – | – | 1 ± 0.27 nM | – | –
7 | Cc1cc(COc2cccnc2)cc(C)c1Oc1ccnc(Nc2ccc(C#N)cc2)n1 [TF11, 4-((4-(2,6-Dimethyl-4-((pyridin-3-yloxy)methyl)phenoxy)pyrimidin-2-yl)amino) benzonitrile] | > 14800 nM | 199 ± 13 nM | 74.5 | > 14800 nM | ≥ 3020 nM | 14800 nM | > 14800 nM | > 14800 nM | 444 ± 68.6 nM | 2.23 | 483 ± 30 nM | 9574 ± 22.2 nM | > 14800 nM | 237 to 240 °C | – | – | –
8 | Cc1cc(COc2ccccc2)cc(C)c1Oc1ccnc(Nc2ccc(C#N)cc2)n1 [TF1, 4-((4-(2,6-dimethyl-4-(phenoxymethyl)phenoxy)pyrimidin-2-yl)amino) benzonitrile] | 6850 ± 1170 nM | 17.1 ± 2.3 nM | >17,326.7 | 1520 ± 92.1 nM | 76.5 ± 9.4 nM | > 296000 nM | 1710 ± 581 nM | > 296000 nM | 50.7 ± 9.6 nM | 3.00 | 62 nM | 221 ± 53.5 nM | 515 ± 60.4 nM | 179 to 182 °C | – | – | –
9 | Cc1cc(C#N)cc(C)c1Oc1nc(Nc2ccc(C#N)cc2)nc(N)c1Br [ETR, etravirine, reference compound] | 29.5 ± 4.8 nM | 3 nM | >1578.9 | 18.1 ± 3.2 nM | 6.3 ± 1.2 nM | > 4590 nM | 20.4 ± 7.8 nM | – | 3 ± 0.3 nM | – | – | 5.9 ± 1 nM | 11.1 ± 1.3 nM | – | – | 2.9 ± 0.4 nM | 11 nM
10 | Cc1cc(COc2ccc(CO)cc2)cc(C)c1Oc1ccnc(Nc2ccc(C#N)cc2)n1 [TF8, 4-((4-(4-((4-(hydroxymethyl)phenoxy)methyl)-2,6-dimethylphenoxy)pyrimidin-2-yl)amino)benzonitrile] | 1419 ± 9.7 nM | 42.8 ± 5.6 nM | 68.1 | 886 ± 20.1 nM | 148 ± 4.6 nM | 2920 ± 272 nM | 853 ± 81.4 nM | > 2920 nM | 110 ± 4.6 nM | 2.56 | 41 ± 1 nM | 329 ± 56.7 nM | 667 ± 78 nM | 209 to 212 °C | – | – | –
